Measurements from patent US8952024B2, “Herbicidal pyrimidone derivatives” (E I du Pont de Nemours and Company, priority 2009, dated 2015).

Tests used:
Assay in all cases: Test B pre-/postemergence plant response
Assay type in all cases: in vivo
[1] = system: goosegrass (Eleusine indica)
Method in brief: (§1)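 Response scores were assigned visually after 13 to 15 days in a greenhouse, comparing treated pots with controls on a 0–100 scale where 100 denotes complete control. Preemergence treatments went onto freshly seeded loam/sand soil; postemergence treatments onto plants 2 to 18 cm tall.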

[2] = system: yellow nutsedge (Cyperus esculentus)
Method in brief: as §1

[3] = system: green foxtail (Setaria viridis)
Method in brief: as §1

[4] = system: downy bromegrass (Bromus tectorum)
Method in brief: as §1

[5] = system: large crabgrass (Digitaria sanguinalis)
Method in brief: as §1

[6] = system: woolly cupgrass (Eriochloa villosa)
Method in brief: as §1

[7] = system: pigweed (Amaranthus retroflexus)
Method in brief: as §1

[8] = system: velvetleaf (Abutilon theophrasti)
Method in brief: as §1

[9] = system: giant foxtail (Setaria faberii)
Method in brief: as §1

[10] = system: wheat (Triticum aestivum)
Method in brief: as §1

[11] = system: johnsongrass (Sorghum halepense)
Method in brief: as §1

[12] = system: lambsquarters (Chenopodium album)
Method in brief: as §1

kochia (Kochia scoparia) = system: kochia (Kochia scoparia)
Method in brief: as §1

[13] = 31 g ai/ha, postemergence, scale 0 to 100, 0 is no effect, 100 is complete control
[14] = 62 g ai/ha, postemergence, 0 is no effect, 100 is complete control, 13 to 15 days
[15] = 250 g ai/ha, Preemergence, 0 to 100 scale
[16] = Postemergence, 125 g ai/ha, visual rating after 13 to 15 days, scale 0 (no effect) to 100 (complete control)
[17] = Postemergence, 250 g ai/ha, scale 0 to 100 (0 no effect, 100 complete control)
[18] = Preemergence, 31 g ai/ha, scale 0 to 100 (0 no effect, 100 complete control)
[19] = Preemergence, 62 g ai/ha, scale 0 to 100 (0 no effect, 100 complete control)
[20] = Preemergence, 125 g ai/ha, scale 0 to 100, 0 no effect, 100 complete control

CCCCc1ncc(C(=O)C2=C(O)CCCC2=O)c(=O)n1-c1ccc(C)cc1 [Compound 67]
Plant response rating, Goosegrass [1, 13]: 55
Goosegrass plant response rating (0 to 100 scale) [1, 14]: 55
Plant response rating, Goosegrass [1, 15]: 98
Plant response rating, Goosegrass [1, 16]: 65
Plant response rating, Goosegrass [1, 17]: 80
Plant response rating, Goosegrass [1, 18]: 85
Plant response rating, Goosegrass [1, 19]: 85
Plant response rating, Goosegrass [1, 20]: 90
Plant response rating, Nutsedge, Yellow [2, 13]: 60
Nutsedge, Yellow plant response rating (0 to 100 scale) [2, 14]: 65
Plant response rating, Nutsedge, Yellow [2, 16]: 65
Plant response rating, Nutsedge, Yellow [2, 17]: 70
Plant response rating, Nutsedge, Yellow [2, 18]: 0
Plant response rating, Nutsedge, Yellow [2, 19]: 65
Plant response rating, Nutsedge, Yellow [2, 20]: 65
Plant response rating, Foxtail, Green [3, 13]: 10
Foxtail, Green plant response rating (0 to 100 scale) [3, 14]: 80
Plant response rating, Foxtail, Green [3, 15]: 40
Plant response rating, Foxtail, Green [3, 16]: 80
Plant response rating, Foxtail, Green [3, 17]: 95
Plant response rating, Foxtail, Green [3, 18]: 0
Plant response rating, Foxtail, Green [3, 19]: 30
Plant response rating, Bromegrass, Downy [4, 13]: 0
Bromegrass, Downy plant response rating (0 to 100 scale) [4, 14]: 0
Plant response rating, Bromegrass, Downy [4, 15]: 0
Plant response rating, Bromegrass, Downy [4, 16]: 0
Plant response rating, Bromegrass, Downy [4, 17]: 5
Plant response rating, Bromegrass, Downy [4, 18]: 0
Plant response rating, Bromegrass, Downy [4, 19]: 0
Plant response rating, Bromegrass, Downy [4, 20]: 0
Plant response rating, Crabgrass, Large [5, 13]: 75
Crabgrass, Large plant response rating (0 to 100 scale) [5, 14]: 80
Plant response rating, Crabgrass, Large [5, 15]: 100
Plant response rating, Crabgrass, Large [5, 16]: 90
Plant response rating, Crabgrass, Large [5, 17]: 95
Plant response rating, Crabgrass, Large [5, 18]: 40
Plant response rating, Crabgrass, Large [5, 19]: 65
Plant response rating, Crabgrass, Large [5, 20]: 98
Plant response rating, Cupgrass, Woolly [6, 13]: 60
Cupgrass, Woolly plant response rating (0 to 100 scale) [6, 14]: 70
Plant response rating, Cupgrass, Woolly [6, 15]: 10
Plant response rating, Cupgrass, Woolly [6, 16]: 70
Plant response rating, Cupgrass, Woolly [6, 17]: 75
Plant response rating, Cupgrass, Woolly [6, 18]: 0
Plant response rating, Cupgrass, Woolly [6, 19]: 0
Plant response rating, Cupgrass, Woolly [6, 20]: 0
Plant response rating, Pigweed [7, 13]: 98
Pigweed plant response rating (0 to 100 scale) [7, 14]: 98
Plant response rating, Pigweed [7, 16]: 98
Plant response rating, Pigweed [7, 17]: 100
Plant response rating, Pigweed [7, 18]: 98
Plant response rating, Pigweed [7, 19]: 98
Plant response rating, Pigweed [7, 20]: 98
Plant response rating, Velvetleaf [8, 13]: 90
Velvetleaf plant response rating (0 to 100 scale) [8, 14]: 95
Plant response rating, Velvetleaf [8, 16]: 98
Plant response rating, Velvetleaf [8, 17]: 100
Plant response rating, Velvetleaf [8, 18]: 75
Plant response rating, Velvetleaf [8, 19]: 85
Plant response rating, Velvetleaf [8, 20]: 90
Plant response rating, Foxtail, Giant [9, 13]: 75
Foxtail, Giant plant response rating (0 to 100 scale) [9, 14]: 80
Plant response rating, Foxtail, Giant [9, 15]: 65
Plant response rating, Foxtail, Giant [9, 16]: 85
Plant response rating, Foxtail, Giant [9, 17]: 90
Plant response rating, Foxtail, Giant [9, 18]: 0
Plant response rating, Foxtail, Giant [9, 19]: 0
Plant response rating, Foxtail, Giant [9, 20]: 45
Plant response rating, Wheat [10, 13]: 5
Wheat plant response rating (0 to 100 scale) [10, 14]: 5
Plant response rating, Wheat [10, 16]: 25
Plant response rating, Wheat [10, 17]: 25
Plant response rating, Wheat [10, 18]: 0
Plant response rating, Wheat [10, 19]: 0
Plant response rating, Wheat [10, 20]: 0
Plant response rating, Johnsongrass [11, 13]: 0
Johnsongrass plant response rating (0 to 100 scale) [11, 14]: 0
Plant response rating, Johnsongrass [11, 15]: 0
Plant response rating, Johnsongrass [11, 16]: 5
Plant response rating, Johnsongrass [11, 17]: 10
Plant response rating, Johnsongrass [11, 18]: 0
Plant response rating, Johnsongrass [11, 19]: 0
Plant response rating, Johnsongrass [11, 20]: 0
Plant response rating, Lambsquarters [12, 13]: 80
Lambsquarters plant response rating (0 to 100 scale) [12, 14]: 95
Plant response rating, Lambsquarters [12, 15]: 98
Plant response rating, Lambsquarters [12, 16]: 98
Plant response rating, Lambsquarters [12, 17]: 100
Plant response rating, Lambsquarters [12, 18]: 98
Plant response rating, Lambsquarters [12, 19]: 98
Plant response rating, Lambsquarters [12, 20]: 98
Plant response rating, Kochia (kochia (Kochia scoparia); [13]): 75
Kochia plant response rating (0 to 100 scale) (kochia (Kochia scoparia); [14]): 80
Plant response rating, Kochia (kochia (Kochia scoparia); [15]): 85
Plant response rating, Kochia (kochia (Kochia scoparia); [16]): 85
Plant response rating, Kochia (kochia (Kochia scoparia); [17]): 85
Plant response rating, Kochia (kochia (Kochia scoparia); [18]): 70
Plant response rating, Kochia (kochia (Kochia scoparia); [19]): 70
Plant response rating, Kochia (kochia (Kochia scoparia); [20]): 80
